Measured values published in patent US7750000B2, “Substituted imidazo[1,2b]pyridazines as kinase inhibitors, their preparation and use as medicaments” (Bayer Schering Pharma AG, priority 2005, dated 2010).

How the values were obtained:
[1] = test system: interleukin 2 (IL-2) secretion of peripheral blood mononuclear cells (PBMC); assay: Antibody-induced (anti-CD3/anti-CD28) IL-2 secretion in PBMC, ELISA; assay type: cell-based; conditions: human PBMC, anti-CD3/anti-CD28 stimulation; for IC50: 20 hours, read-out: IC50 (concentration for 50% inhibition of IL-2)
Protocol: The extent to which test substance influence antibody-induced interleukin 2 (IL-2) secretion was investigated in the following test system. IL-2 represents a central cytokine which is produced and released by activated T cells. IL-2 synthesis in the T cells is regulated by a plurality of kinases. An inhibitory effect of substances on kinases leads inter alia to inhibition of IL-2 synthesis and inhibition of the T cell immune response. The cytokine determinations were carried out using an ELISA kit.
Peripheral blood mononuclear cells (PBMC) were isolated from heparinized human whole blood by gradient centrifugation using Histopaque 1077 (Sigma) at room temperature, and the erythrocytes were lyzed hypotonically and, after washing twice in PBS, taken up in cell culture medium (10% fetal inactivated calf serum in RPMI-1640+Glutamax-I [Gibco]).
The 96 well culture plates (Costar) were previously incubated with 100 μl of antibody solution in PBS 0.1 μg/ml in PBS [Gibco]) per well at 4° C. for 18 hours. The antibodies used were anti-CD3 and anti-CD28 monoclonal antibodies (PharMingen). After washing with PBS three times, the plates were charged with 200 μl of the cell suspension (40 000 cells/well). […]
The cultures were incubated in an incubator at 37° C. for 20 hours. After this incubation, the plates were briefly shaken and centrifuged, and […] of supernatant were removed, and the supernatants were then frozen at −20° C.
Interleukin-2 was determined using an ELISA kit (Bioscience), and the absorption of the color change was analyzed in a SpectraMax 340 PC (wavelength 450 nm). Active substances brought about a reduction in the absorption.

PKC theta = PKC theta (Homo sapiens, UniProt Q04759); assay: Inhibition of PKC theta; assay type: biochemical
Chain of PKC theta (Q04759 whole entry): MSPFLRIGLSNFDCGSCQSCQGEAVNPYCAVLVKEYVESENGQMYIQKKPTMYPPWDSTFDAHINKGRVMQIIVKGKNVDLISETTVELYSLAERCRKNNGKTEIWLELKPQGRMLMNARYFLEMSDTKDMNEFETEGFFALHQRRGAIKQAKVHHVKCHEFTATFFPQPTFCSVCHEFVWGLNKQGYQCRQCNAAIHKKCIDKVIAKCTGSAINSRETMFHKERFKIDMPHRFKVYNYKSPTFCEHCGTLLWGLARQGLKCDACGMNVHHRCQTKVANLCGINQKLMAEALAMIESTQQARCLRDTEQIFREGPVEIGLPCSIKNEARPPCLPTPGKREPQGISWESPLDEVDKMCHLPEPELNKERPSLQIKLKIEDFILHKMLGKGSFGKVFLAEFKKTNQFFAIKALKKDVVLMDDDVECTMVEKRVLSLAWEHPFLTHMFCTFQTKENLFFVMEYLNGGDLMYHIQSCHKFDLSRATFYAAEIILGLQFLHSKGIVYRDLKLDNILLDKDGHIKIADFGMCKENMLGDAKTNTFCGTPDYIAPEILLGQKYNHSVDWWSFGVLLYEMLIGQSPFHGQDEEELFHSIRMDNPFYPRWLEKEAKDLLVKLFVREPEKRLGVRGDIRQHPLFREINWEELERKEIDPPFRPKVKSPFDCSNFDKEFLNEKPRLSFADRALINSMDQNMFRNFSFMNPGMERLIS

| Compound | IC50 [1] | IC50 (PKC theta) | inhibition at 10 µM [1] |
| --- | --- | --- | --- |
| c1ccc(-c2cnc3ccc(NCCCn4ccnc4)nn23)cc1 [KE1322-002-a] | 1.7 µM | 12.9 µM |  |
| Cc1[nH]ncc1CCCNc1ccc2ncc(-c3ccccc3)n2n1 [KE1322-006-a] | 2 µM | 11.3 µM |  |
| CCN(CC)CCCC(C)Nc1ccc2ncc(-c3ccccc3)n2n1 (stereo not drawn) [KE1322-010-a] | 1.1 µM | 5.4 µM |  |
| CCN(CC)CCCNc1ccc2ncc(-c3ccccc3)n2n1 [KE1322-011-a] | 2.6 µM | 5.5 µM |  |
| Clc1cccc(-c2cnc3ccc(NCCCn4ccnc4)nn23)c1 [KE1322-014-a] | 1.1 µM | 7.2 µM |  |
| CCN(CC)CCCC(C)Nc1ccc2ncc(-c3cccc(Cl)c3)n2n1 (stereo not drawn) [KE1322-022-a] | 0.29 µM | 0.22 µM |  |
| CCN(CC)CCCNc1ccc2ncc(-c3cccc(Cl)c3)n2n1 [KE1322-023-a] | 0.21 µM | 0.25 µM |  |
| Clc1cccc(-c2cnc3ccc(NCCN4CCCC4)nn23)c1 [KE1322-024-a] | 1 µM | 1.7 µM |  |
| Cn1cc(-c2cnc3ccc(NCC4CCCCC4)nn23)cn1 [KE1322-028-a] |  | 7 µM |  |
| Cc1[nH]ncc1CCCNc1ccc2ncc(-c3cnn(C)c3)n2n1 [KE1322-030-a] | 0.7 µM | 7.2 µM |  |
| Cc1[nH]ncc1CCCNc1ccc2ncc(-c3ccsc3)n2n1 [KE1322-042-a] | 0.4 µM | 13 µM |  |
| c1ccc(-c2cnc3ccc(NCCCN4CCCC4)nn23)cc1 [OP 3070] | 1.4 µM | 6.1 µM | > 95% |
| c1ccc(-c2cnc3ccc(NCCCN4CCOCC4)nn23)cc1 [OP 3071] | 2.5 µM | 17 µM | > 95% |
| Clc1cccc(-c2cnc3ccc(NCCCN4CCCC4)nn23)c1 [OP 3073] | 0.21 µM | 0.25 µM | > 95% |
| Clc1cccc(-c2cnc3ccc(NCCCN4CCOCC4)nn23)c1 [OP 3074] | 0.92 µM | 0.41 µM | > 95% |
